Assay results as given in US12516052B2, “Methyltransferase 5 (PRMT5) inhibitors and methods of treatment” (THE TRUSTEES OF INDIANA UNIVERSITY, priority 2016, dated 2026).
Entries after “also recorded” stand apart in the source; their conditions may differ.

What was measured:
[1] = tested on: other protein arginine methyltransferase family members; test: HotSpot radioisotope-based methyltransferase platform (Reaction Biology Corp); type: biochemical; details: did not inhibit or at least this fold higher IC50
[2] = tested on: CRC cells (HT29, HCT116 and DLD1); test: MTT cell viability assay in CRC cell lines; type: cell-based
Protocol: The PRMT5 inhibitory activity of the compounds from the screen was confirmed using both AlphaLISA and an MTT [(3-(4,5-dimethylthiazolyl-2)-2,5-diphenyltetrazolium bromide)] assay (PerkinElmer, Waltham, MA). For the MTT assay, cells were seeded at 90% confluence in 96-well plates and titrated with different dosages of compound (IIa) for 4 days. Media was then removed and 100 μl of MTT (Sigma-Aldrich, St. Louis, MO) was added per well. Cells were incubated for 2 hours at 37° C. before adding 100 μl of DMSO to each well and quantified with the SYNERGY™ H1 Multi-Mode Reader (BioTek Instruments Inc., Winooski, VT). The expression of PRMT5 was examined in pancreatic ductal adenocarcinoma cells at multiple stages of disease progression and in multiple colorectal cancer cell lines. Pancreatic control (HPNE) and cancer cell lines (PANC1, MiaPaCa2 and AsPC1) were grown in Dulbecco's Modified Eagle Medium (DMEM) (GE Healthcare, Little Chalfont, UK), supplemented with 1% of penicillin/streptomycin, 10% fetal bovine serum (FBS). Colon control (FHC) and cancer (HT29, HCT116, and DLD1) cell lines were maintained in RPMI 1640 Medium (Roswell Park Memorial Institute Medium) (GE Healthcare, Little Chalfont, UK), containing 1% penicillin/streptomycin and 10% FBS, while FHC cells were cultured under the same condition with further addition of 25 mM HEPES (4-(2-hydroxyethyl)-1-piperazineethanesulfonic acid), 10 ng/ml cholera toxin, 0.005 mg/ml insulin, 0.005 mg/ml transferring, and 100 ng/ml hydrocortisone. All cell lines were cultured at 37° C. under 5% CO2. The PDAC and CRC cell lines described above were treated with increasing concentrations of compound (IIa) or the commercially available PRMT5 inhibitor EPZ015666 [drawing 12] and quantified for cell viability using the MTT assay described above. […] A soft agar experiment was also performed to determine the effect of compound (IIa) on colony growth.

[3] = tested on: PANC1 cells; test: Anchorage-independent (soft agar) growth assay in PANC1 cells; type: cell-based; details: increasing concentrations
Protocol: The ability to form colonies suspended in soft agar is a characteristic of cancer cells. By using the stable cell lines established above, an anchorage-independent assay in soft agar was conducted. 2.5% and 1.25% agar were used to prepare the bottom and top layers of the soft agar, respectively. The bottom agar was added to each well of a 6-well plate. 2×10^5 cells for each cell line were then added and mixed into top agar solution and layered on top of the bottom layer. The plates were incubated for 10-20 days at 37° C. and 5% CO2. Images were captured using a Canon EOS Rebel T3i Digital SLR camera (Canon, Woodridge, IL) and quantification of colony size and number was performed using ImageJ. […] A soft agar experiment was also performed to determine the effect of compound (IIa) on colony growth.

[4] = tested on: PANC1 cells; test: PANC1 subcutaneous xenograft tumor efficacy study in NSG mice; type: in vivo; details: 20 mg/kg intraperitoneally 3×/week, vs vehicle control, n=4
Protocol: NSG (NOD scid gamma) mice were obtained from the In Vivo Therapeutics Core at Indiana University School of Medicine. After acclimation for 7 days, NSG mice (6-8 weeks old) were xenografted with mycoplasma-free PANC1 or HT29 cells subcutaneously (1×10^7 PANC1 or 3×10^6 HT29 cells used per mouse in 0.2 ml of a 1:1 mix of phosphate-buffered saline and MATRIGEL™) (BD Biosciences, San Jose, CA). Mice were randomized when tumor volumes reached about 100 mm^3. Mice were treated with either vehicle control or 20 mg/kg of compound (Ia) (drug stock dissolved in 1:1 CREMOPHOR™:ethanol solution) intraperitoneally 3 times per week. Tumor volumes and body weights were measured twice a week. The study was performed in accordance with the guidelines and standards of the Institutional Animal Care and Use Committee (IACUC). […] NSG (NOD scid gamma) mice were obtained from the In Vivo Therapeutics Core at Indiana University School of Medicine. After acclimation for 7 days, NSG mice (6-8 weeks old) were xenografted with mycoplasma-free PANC1 or HT29 cells subcutaneously (1×10^7 PANC1 or 3×10^6 HT29 cells used per mouse in 0.2 ml of a 1:1 mix of phosphate-buffered saline and MATRIGEL™) (BD Biosciences, San Jose, CA). Mice were randomized when tumor volumes reached about 100 mm^3. […] Tumor volumes and body weights were measured twice a week. […]

[5] = Body weight of xenografted NSG mice during treatment; type: in vivo; details: 20 mg/kg intraperitoneally 3×/week, over the course of treatment
Protocol: NSG (NOD scid gamma) mice were obtained from the In Vivo Therapeutics Core at Indiana University School of Medicine. After acclimation for 7 days, NSG mice (6-8 weeks old) were xenografted with mycoplasma-free PANC1 or HT29 cells subcutaneously (1×10^7 PANC1 or 3×10^6 HT29 cells used per mouse in 0.2 ml of a 1:1 mix of phosphate-buffered saline and MATRIGEL™) (BD Biosciences, San Jose, CA). Mice were randomized when tumor volumes reached about 100 mm^3. Mice were treated with either vehicle control or 20 mg/kg of compound (Ia) (drug stock dissolved in 1:1 CREMOPHOR™:ethanol solution) intraperitoneally 3 times per week. Tumor volumes and body weights were measured twice a week. The study was performed in accordance with the guidelines and standards of the Institutional Animal Care and Use Committee (IACUC). […] NSG (NOD scid gamma) mice were obtained from the In Vivo Therapeutics Core at Indiana University School of Medicine. After acclimation for 7 days, NSG mice (6-8 weeks old) were xenografted with mycoplasma-free PANC1 or HT29 cells subcutaneously (1×10^7 PANC1 or 3×10^6 HT29 cells used per mouse in 0.2 ml of a 1:1 mix of phosphate-buffered saline and MATRIGEL™) (BD Biosciences, San Jose, CA). Mice were randomized when tumor volumes reached about 100 mm^3. Mice were treated with either vehicle control or 20 mg/kg of compound (IIa) (drug stock dissolved in 1:1 CREMOPHOR™:ethanol solution) intraperitoneally 3 times per week. Tumor volumes and body weights were measured twice a week. The study was performed in accordance with the guidelines and standards of the Institutional Animal Care and Use Committee (IACUC).

[6] = tested on: NF-κB; test: NF-κB luciferase assay in PANC1 cells; type: cell-based; details: increasing concentrations
From the text: Previously, it was discovered that PRMT5 activates NF-κB through methylation of its p65 subunit in HEK293 cells (Wei et al., Proc Natl Acad Sci USA, 2013; 110: 13516-13521; Wei et al., Cell Cycle, 2013; 13: 32-41). As shown in FIGS. 11A and 11B, overexpression of PRMT5 enhances NF-κB activity, while PRMT5 knockdown causes the opposite effect in both PANC1 (FIG. 11A) and HT-29 (FIG. 11B) cells. To determine if compound (IIa) decreases NF-κB activity, cells transfected with a NF-κB luciferase construct were treated with increasing concentrations of compound (IIa) or the control compound EPZ015666.

[7] = tested on: NF-κB target genes (TNFα and IL8); test: qPCR of NF-κB target genes in PANC1 cells; type: cell-based; details: treated vs untreated
Protocol: Furthermore, experiments were performed to determine if PRMT5 inhibition by compound (IIa) could decrease the expression of NF-κB target genes (e.g., pro-inflammatory cytokines TNFα and IL-8). Briefly, HT29 and PANC1 cells were treated with or without compound (IIa), and target gene expression was analyzed by quantitative PCR.

[8] = tested on: methamphetamine-treated rats; test: Striatal neurotransmitter levels (HPLC) in methamphetamine-treated rats; type: in vivo; details: methamphetamine 7.5 mg/kg ×4, then 4 injections of 1 mg/kg at 12 hour intervals, vs vehicle
Protocol: Rats were given methamphetamine treatment 7.5 mg/kg, 4 injections spaced out at 2 hours each. Then, 4 injections of 1 mg/kg of compound (IIa) or vehicle control were given at 12 hours, 24 hours, 36 hours, and 48 hours after the last methamphetamine injection. Rats were sacrificed 24 hours after the last injection and neurotransmitter levels were quantified in the striatum using high performance liquid chromatography (HPLC).

For `Cc1ccc(Nc2nc(NCCN(C)C)nc3c2cnn3-c2ccccc2)cc1C` [compound (IIa)], the “fold higher IC50 against other protein arginine methyltransferase family members” value [1] was ≥ 10 fold, the “cell viability in CRC cells (HT29, HCT116, DLD1), MTT” value ([2]; increasing concentrations) was “decreased significantly” and the IC50 ([2]; range over HT29, HCT116 and DLD1) was 10 to 11 µM. For the same compound, the “anchorage-independent growth / colony formation, PANC1 (PDAC)” value [3] was “strongly inhibited colony formation; also recorded: significant decrease”, the “tumor growth (tumor volume), PANC1 xenograft” value [4] was “significant tumor inhibition effect; also recorded: inhibition of tumor growth” and the “body weight, HT29 model” value [5] was “did not visibly affect the body weight; also recorded: no significant changes in body weight”. For the same compound, the “body weight, PANC1 model” value [5] was “did not visibly affect the body weight; also recorded: no significant changes in body weight”, the “NF-κB activation (luciferase), PANC1” value [6] was “corresponding decrease in NF-κB activation” and the “IL8 expression (qPCR), PANC1” value [7] was “significant decrease; also recorded: dramatically decreased”. The “TNFα expression (qPCR), PANC1” value [7] was “significant decrease; also recorded: dramatically decreased”, the “dopamine levels in the striatum” value [8] was “increase” and the “serotonin levels in the striatum” value [8] was “increase”.
